Laboratory results: US20090311217A1, “3-SUBSTITUTED-1H-INDOLE COMPOUNDS, THEIR USE AS MTOR KINASE AND PI3 KINASE INHIBITORS, AND THEIR SYNTHESES” (priority 2008, published 2009)
Read-outs that look alike come from different tables or passages of the source.

Columns and labels:
Type in all cases: biochemical
PI3K-gamma = PI3K-gamma (Homo sapiens, UniProt P48736); assay: PI3K-gamma fluorescence polarization assay
Method in brief: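 FP displacement read-out: 100 nM GST-GRP1 PH domain plus 5 nM BODIPY-TMR-IP4 added after EDTA stop. Preceding kinase step: 5 ng enzyme, diC8-PI(4,5)P2 2.5 μM, ATP 25 μM, MgCl2 2.5 mM, HEPES 5 mM pH 7, one hour, 25° C.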

human TOR = target: T1, human TOR (Homo sapiens, UniProt P42345); assay: mTOR enzyme assay (DELFIA, His6-S6K substrate); conditions: read-out: mTOR Kinase Avg. IC50
T1 construct: FLAG

PI3K-alpha = PI3K-alpha (Homo sapiens, UniProt P42336); assay: PI3K-alpha fluorescence polarization assay; conditions: read-out: PI3Kα Avg. IC50
PI3K-alpha, sequence (P42336 whole entry, species assumed): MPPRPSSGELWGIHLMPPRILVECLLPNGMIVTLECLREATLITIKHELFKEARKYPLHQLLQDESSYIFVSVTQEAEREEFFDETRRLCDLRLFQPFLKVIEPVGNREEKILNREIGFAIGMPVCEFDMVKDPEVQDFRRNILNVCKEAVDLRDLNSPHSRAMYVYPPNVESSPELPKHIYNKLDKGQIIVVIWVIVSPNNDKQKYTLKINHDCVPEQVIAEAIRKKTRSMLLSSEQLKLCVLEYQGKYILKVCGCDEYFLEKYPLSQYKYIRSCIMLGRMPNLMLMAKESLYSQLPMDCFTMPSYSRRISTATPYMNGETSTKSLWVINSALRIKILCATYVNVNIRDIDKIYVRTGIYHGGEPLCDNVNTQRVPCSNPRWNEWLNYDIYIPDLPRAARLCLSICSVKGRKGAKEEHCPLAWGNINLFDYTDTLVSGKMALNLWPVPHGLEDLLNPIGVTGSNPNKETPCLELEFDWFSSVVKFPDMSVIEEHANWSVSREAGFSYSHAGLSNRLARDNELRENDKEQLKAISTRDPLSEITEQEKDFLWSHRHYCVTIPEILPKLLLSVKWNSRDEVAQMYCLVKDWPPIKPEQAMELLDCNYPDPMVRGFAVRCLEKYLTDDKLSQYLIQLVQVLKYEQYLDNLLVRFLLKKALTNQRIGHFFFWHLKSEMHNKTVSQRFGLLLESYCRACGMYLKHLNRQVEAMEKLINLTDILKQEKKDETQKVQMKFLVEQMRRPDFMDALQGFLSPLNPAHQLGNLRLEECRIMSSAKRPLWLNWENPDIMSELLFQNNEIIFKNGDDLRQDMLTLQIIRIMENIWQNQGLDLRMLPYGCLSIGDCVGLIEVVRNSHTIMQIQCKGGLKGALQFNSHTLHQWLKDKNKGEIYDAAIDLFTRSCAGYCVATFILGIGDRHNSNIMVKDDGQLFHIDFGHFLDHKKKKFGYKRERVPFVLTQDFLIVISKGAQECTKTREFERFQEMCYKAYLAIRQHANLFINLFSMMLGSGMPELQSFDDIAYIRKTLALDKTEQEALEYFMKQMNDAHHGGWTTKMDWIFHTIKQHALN
PI3K-alpha, sequence (P27986 whole entry partner, species assumed): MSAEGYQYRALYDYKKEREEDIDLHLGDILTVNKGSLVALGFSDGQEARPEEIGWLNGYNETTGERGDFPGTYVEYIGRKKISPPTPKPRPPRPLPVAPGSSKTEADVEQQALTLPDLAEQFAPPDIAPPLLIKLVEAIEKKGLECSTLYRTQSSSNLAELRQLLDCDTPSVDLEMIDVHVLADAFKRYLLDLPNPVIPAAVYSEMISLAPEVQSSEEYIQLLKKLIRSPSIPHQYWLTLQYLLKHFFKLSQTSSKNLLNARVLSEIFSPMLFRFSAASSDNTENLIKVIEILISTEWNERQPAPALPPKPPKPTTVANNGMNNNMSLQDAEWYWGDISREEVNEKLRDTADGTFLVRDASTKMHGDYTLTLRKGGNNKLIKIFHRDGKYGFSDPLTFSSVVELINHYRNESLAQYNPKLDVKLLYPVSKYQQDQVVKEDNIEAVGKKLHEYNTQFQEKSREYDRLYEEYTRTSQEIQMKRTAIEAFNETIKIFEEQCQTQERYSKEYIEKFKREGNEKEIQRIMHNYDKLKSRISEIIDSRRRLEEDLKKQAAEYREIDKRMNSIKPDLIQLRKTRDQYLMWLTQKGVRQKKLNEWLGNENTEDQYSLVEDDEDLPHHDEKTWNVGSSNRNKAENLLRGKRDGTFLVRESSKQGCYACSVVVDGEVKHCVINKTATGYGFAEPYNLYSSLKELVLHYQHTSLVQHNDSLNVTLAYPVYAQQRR

PI3K-gamma, sequence (P48736 whole entry, species assumed, the tested form may be a part): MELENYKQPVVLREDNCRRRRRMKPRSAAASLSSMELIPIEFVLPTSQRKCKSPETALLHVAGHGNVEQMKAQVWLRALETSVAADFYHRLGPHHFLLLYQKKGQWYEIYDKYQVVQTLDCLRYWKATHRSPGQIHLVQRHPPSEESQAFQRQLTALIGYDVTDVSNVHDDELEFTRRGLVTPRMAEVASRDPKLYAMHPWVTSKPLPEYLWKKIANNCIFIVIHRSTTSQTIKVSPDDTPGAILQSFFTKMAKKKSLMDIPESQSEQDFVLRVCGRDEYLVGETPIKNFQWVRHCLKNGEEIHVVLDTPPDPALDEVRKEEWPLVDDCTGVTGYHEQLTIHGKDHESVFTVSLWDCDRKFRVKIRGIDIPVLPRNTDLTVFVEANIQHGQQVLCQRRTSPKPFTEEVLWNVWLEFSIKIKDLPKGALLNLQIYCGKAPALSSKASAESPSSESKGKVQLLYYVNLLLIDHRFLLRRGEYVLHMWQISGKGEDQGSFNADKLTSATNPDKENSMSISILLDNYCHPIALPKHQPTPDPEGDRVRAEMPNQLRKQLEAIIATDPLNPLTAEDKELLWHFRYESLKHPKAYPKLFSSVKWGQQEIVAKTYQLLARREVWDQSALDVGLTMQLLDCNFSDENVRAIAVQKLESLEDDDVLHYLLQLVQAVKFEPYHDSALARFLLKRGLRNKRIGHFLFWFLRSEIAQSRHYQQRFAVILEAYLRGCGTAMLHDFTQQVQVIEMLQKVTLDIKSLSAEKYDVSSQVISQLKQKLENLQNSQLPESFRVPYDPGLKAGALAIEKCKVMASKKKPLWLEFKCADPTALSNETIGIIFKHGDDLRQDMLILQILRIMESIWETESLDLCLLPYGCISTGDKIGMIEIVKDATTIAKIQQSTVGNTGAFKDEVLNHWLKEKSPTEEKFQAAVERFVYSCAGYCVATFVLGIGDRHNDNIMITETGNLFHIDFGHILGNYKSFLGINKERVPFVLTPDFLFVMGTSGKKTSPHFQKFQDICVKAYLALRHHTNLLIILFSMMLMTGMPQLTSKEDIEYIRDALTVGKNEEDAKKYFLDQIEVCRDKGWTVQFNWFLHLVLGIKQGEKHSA

| IC50 (PI3K-gamma; PI3Kγ Avg. IC50) [nM] | IC50 (human TOR) [nM] | IC50 (PI3K-alpha) [nM] | IC50 (PI3K-gamma; read-out: PI3Kγ Avg. IC50) [nM] | SMILES |
| --- | --- | --- | --- | --- |
| 4.7 | 1 | 0.2 | – | CNC(=O)Nc1ccc2c(c1)C(=O)/C(=C/c1c(-c3c(C)n[nH]c3C)[nH]c3ccc(OC)cc13)O2 [Compound 625, 1-[(2Z)-2-{[2-(3,5-dimethyl-1H-pyrazol-4-yl)-5-methoxy-1H-indol-3-yl]methylidene}-3-oxo-2,3-dihydro-1-benzofuran-5-yl]-3-methylurea] |
| – | 280 | > 10000 | – | Cn1cc(C=C2Oc3cc(O)cc(O)c3C2=O)c2c(OCc3ccccc3)cccc21 [Example 256, 2-{[4-(benzyloxy)-1-methyl-1H-indol-3-yl]methylene}-4,6-dihydroxy-1-benzofuran-3(2H)-one] |
| – | 4500 | 1670 | – | Cn1c(-c2ccc(OCc3ccccc3)cc2)c(C=C2Oc3cc(O)cc(O)c3C2=O)c2ccccc21 [Example 260, 2-({2-[4-(benzyloxy)phenyl]-1-methyl-1H-indol-3-yl}methylene)-4,6-dihydroxy-1-benzofuran-3(2H)-one] |
| – | 680 | 1980 | – | CC(C)Oc1ccc(-c2c(C=C3Oc4cc(O)cc(O)c4C3=O)c3ccccc3n2C)cc1 [Example 261, 4,6-dihydroxy-2-{[2-(4-isopropoxyphenyl)-1-methyl-1H-indol-3-yl]methylene}-1-benzofuran-3(2H)-one] |
| – | 420 | > 10000 | – | N#Cc1cccc2c1c(C=C1Oc3cc(O)cc(O)c3C1=O)cn2CCN1CCOCC1 [Example 262, 3-[(4,6-dihydroxy-3-oxo-1-benzofuran-2(3H)-ylidene)methyl]-1-(2-morpholin-4-ylethyl)-1H-indole-4-carbonitrile] |
| – | 1300 | > 10000 | – | CN(C)CCn1cc(C=C2Oc3cc(O)cc(O)c3C2=O)c2c(C#N)cccc21 [Example 265, 3-[(4,6-dihydroxy-3-oxo-1-benzofuran-2(3H)-ylidene)methyl]-1-[2-(dimethylamino)ethyl]-1H-indole-4-carbonitrile] |
| – | > 20000 | > 10000 | – | O=C1/C(=C/c2c(-c3ccc4ccccc4c3)[nH]c3ccccc23)Sc2ccc(Cl)cc21 [Example 285, (2Z)-5-chloro-2-{[2-(2-naphthyl)-1H-indol-3-yl]methylene}-1-benzothiophen-3(2H)-one] |

Continued, compound first:

| SMILES | IC50 (PI3K-gamma; PI3Kγ Avg. IC50) [nM] | IC50 (human TOR) [nM] | IC50 (PI3K-alpha) [nM] | IC50 (PI3K-gamma; read-out: PI3Kγ Avg. IC50) [nM] |
| --- | --- | --- | --- | --- |
| COc1ccc2c(c1)c(/C=C1\Oc3ccc(NC(=O)Nc4cccnc4)cc3C1=O)c(C)n2CCN1CCN(C)CC1 [Compound 617, 1-[(2Z)-2-({5-methoxy-2-methyl-1-[2-(4-methylpiperazin-1-yl)ethyl]-1H-indol-3-yl}methylidene)-3-oxo-2,3-dihydro-1-benzofuran-5-yl]-3-pyridin-3-ylurea] | 246 | 58 | 1.9 | – |
| CNC(=O)Nc1ccc2c(c1)C(=O)/C(=C/c1c(-c3nc(C(C)C)no3)n(CCN3CCN(C)CC3)c3ccc(OC)cc13)O2 [Compound 621, 1-[(2Z)-2-({5-methoxy-2-[3-(1-methylethyl)-1,2,4-oxadiazol-5-yl]-1-[2-(4-methylpiperazin-1-yl)ethyl]-1H-indol-3-yl}methylidene)-3-oxo-2,3-dihydro-1-benzofuran-5-yl]-3-methylurea] | – | 225 | 3.5 | 355 |
| CNC(=O)Nc1ccc2c(c1)C(=O)/C(=C/c1c(C(=O)NC(C)(C)CO)[nH]c3ccc(OC)cc13)O2 [Compound 622, N-(2-hydroxy-1,1-dimethylethyl)-5-methoxy-3-[(Z)-{5-[(methylcarbamoyl)amino]-3-oxo-1-benzofuran-2(3H)-ylidene}methyl]-1H-indole-2-carboxamide] | 39 | 96 | 8 | – |
| CNC(=O)Nc1ccc2c(c1)C(=O)/C(=C/c1c(-c3c(C)noc3C)n(CCN3CCN(C)CC3)c3ccc(OC)cc13)O2 [Compound 623, 1-[(2Z)-2-({2-(3,5-dimethylisoxazol-4-yl)-5-methoxy-1-[2-(4-methylpiperazin-1-yl)ethyl]-1H-indol-3-yl}methylidene)-3-oxo-2,3-dihydro-1-benzofuran-5-yl]-3-methylurea] | 296 | 60 | 8.5 | – |
| CNC(=O)Nc1ccc2c(c1)C(=O)/C(=C/c1c(-c3ccc(CN(C)C)cc3)[nH]c3ccc(OC)cc13)O2 [Compound 624, 1-{(2Z)-2-[(2-{4-[(dimethylamino)methyl]phenyl}-5-methoxy-1H-indol-3-yl)methylidene]-3-oxo-2,3-dihydro-1-benzofuran-5-yl}-3-methylurea] | 23 | 57 | 2.1 | – |
| Cn1cc(C=C2Oc3cc(O)cc(O)c3C2=O)c2c(O)cccc21 [Example 254, 4,6-dihydroxy-2-[(4-hydroxy-1-methyl-1H-indol-3-yl)methylene]-1-benzofuran-3(2H)-one] | – | 650 | 1660 | – |
| COc1cccc2c1c(C=C1Oc3cc(O)cc(O)c3C1=O)cn2C [Example 255, 4,6-dihydroxy-2-[(4-methoxy-1-methyl-1H-indol-3-yl)methylene]-1-benzofuran-3(2H)-one] | – | 300 | 2460 | – |
| N#Cc1cccc2c1c(C=C1Oc3cc(O)cc(O)c3C1=O)cn2Cc1ccncc1 [Example 263, 3-[(4,6-dihydroxy-3-oxo-1-benzofuran-2(3H)-ylidene)methyl]-1-(pyridin-4-ylmethyl)-1H-indole-4-carbonitrile] | – | 260 | 1680 | – |
| N#CCCCn1cc(C=C2Oc3cc(O)cc(O)c3C2=O)c2c(C#N)cccc21 [Example 264, 1-(3-cyanopropyl)-3-[(4,6-dihydroxy-3-oxo-1-benzofuran-2(3H)-ylidene)methyl]-1H-indole-4-carbonitrile] | – | 1700 | 3930 | – |
| COCCn1cc(C=C2Oc3cc(O)cc(O)c3C2=O)c2c(C#N)cccc21 [Example 266, 3-[(4,6-dihydroxy-3-oxo-1-benzofuran-2(3H)-ylidene)methyl]-1-(2-methoxyethyl)-1H-indole-4-carbonitrile] | – | 810 | 290 | – |
| COC(=O)c1cccc2c1c(C=C1Oc3cc(O)cc(O)c3C1=O)cn2C [Example 267, methyl 3-[(4,6-dihydroxy-3-oxo-1-benzofuran-2(3H)-ylidene)methyl]-1-methyl-1H-indole-4-carboxylate] | – | 86 | 2060 | – |
| COc1ccc(-c2cccc3c2c(/C=C2\Oc4cc(O)cc(O)c4C2=O)cn3C)cn1 [Example 369, (2Z)-4,6-Dihydroxy-2-{[4-(6-methoxypyridin-3-yl)-1-methyl-1H-indol-3-yl]methylene}-1-benzofuran-3(2H)-one] | – | 84.5 | 1050 | – |
| CNC(=O)Nc1ccc2c(c1)O/C(=C\c1cn(CCCN(C)C)c3ccc(OC)cc13)C2=O [Example 406, 1-(2Z)-[2-({1-[3-(Dimethylamino)propyl]-5-methoxy-1H-indol-3-yl}methylene)-3-oxo-2,3-dihydro-1-benzofuran-6-yl]-3-methyl urea] | > 10000 | > 20000 | – | – |
| COc1ccc2c(c1)c(/C=C1\Oc3c(ccc(O)c3C)C1=O)c(C)n2CCCN(C)C [Example 450, (2Z)-2-({1-[3-(Dimethylamino)propyl]-5-methoxy-2-methyl-1H-indol-3-yl}methylene)-6-hydroxy-7-methyl-1-benzofuran-3(2H)-one] | – | > 20000 | 662 | – |
